Assay results as given in patent US7687465B2, “Therapeutic cancer vaccine” (Kraeftens Bekaempelse, priority 2003, dated 2010).
Ends that are not written are not given here.

Assays:
[1] = target: T1, HLA-A2 (Homo sapiens, UniProt P04439, D140Y/D185E/D98H/E176V/E277Q/G131W/G231S/I119V/I121R/I166T/I218V/L300P/L318F/N151K/N90K/P208A/P217A/Q86G/Q94H/R138H/R169H/T345S); experiment: Assembly assay for peptide binding to class I MHC molecules; settings: concentration of the peptide required for half maximal binding to HLA-A2; for EC50: read-out: C50
T1 construct: stabilization of the class 1 molecule after loading of peptide to the peptide transporter deficient cell line T2; endogenous in cells; host or cells: T2 (TAP-deficient human cell line), metabolically labelled with [35S]-methionine and lysed
Procedure: Assembly assays for binding of the synthetic peptides to class I MHC molecules metabolically labeled with [^35S]-methionine can be carried out as described below. It will be appreciated by the person skilled in the art that the protocol may be adopted for any peptide and any class I MHC molecule.
Briefly, TAP deficient cells were metabolically labeled with [^35S]-methionine (Amersham, Freiburg, Germany). The cells were lyzed in 0.5 ml lysis buffer (150 mM NaCl, 50 mM TrisHCl, 0.5% NP-40 (Fluka, Buchs, Switzerland), 5 mM EDTA, pH 7.5) with 0.5% Mega-9 (Sigma, St. Louis, USA) in the presence of protease inhibitors (2 mM PMSF, 5 mM iodoacetamide, 2 μg/ml pepstatin, 2 μg/ml leupeptin) with or without synthetic peptide (for a list of positive control peptides, see Table 2).
After 20 min of incubation, the cell nuclei were removed by centrifugation (5 min, 10,000 g) and 50 μl (10% v/v) freshly washed Staphylococcus aureus organisms (Pansorbin, Calbiochem, Nottingham, UK). The next day Pansorbin was removed by centrifugation (12 min, 16,000 g) and the appropriate monoclonal antibody was added at a final concentration of 10 μg/ml, incubated for 90 min, followed by addition of protein A-Sepharose (75 μl, 10% v/v) and incubation for 1 h. The beads were washed 4 times and stored at −20° C. until analysis by electrophoresis.
In the case of an assembly assay with the HLA class I-specific conformation-dependent monoclonal antibody W6/32, samples were eluted in reducing buffer (9.5 M urea, 2% NP-40, 5% 2-mercaptoethanol, 2% Ampholines, pH range 3.5-9.5 (Pharmacia Biotech, Uppsala, Sweden)) and focused for 16 h at 880 V on 5.5% polyacrylamide isoelectric focusing (IEF) gels^20,39.
Samples from assembly assays with allele-specific antibodies were eluted by boiling (5 min) in SDS reducing buffer (50 mM TrisHCl pH 6.8, 2% SDS, 5% 2-mercaptoethanol, 10% glycerol, 2.5% bromophenol blue) and electrophorezed on 12% SDS-PAGE gels (1 h at 200 V). All gels were fixed in 10% acetic acid with 5% methanol and dried onto 3 MM paper (Whatman, Maidstone, UK). MHC heavy chain bands were quantified using the Imagequant Phosphorimager program (Molecular Dynamics, Sunnyvale, Calif., USA). The intensity of the band is directly related to the amount of peptide-bound class I MHC complex recovered during the assay. C50 value (μM) as the concentration of the peptide required for half maximal binding to MHC may thus be determined. The binding affinities of the analysed peptides are determined according to their efficiency of stabilising the HLA class I molecules. The binding affinity is represented as the peptide concentration required to reach half-maximal stabilistation of appropriate HLA-molecule.
Assembly assays for binding of the synthetic peptides to class I MHC molecules metabolically labeled with [^35S]-methionine were carried out as described^15,16. The assembly assay is based on stabilization of the class 1 molecule after loading of peptide to the peptide transporter deficient cell line T2. Subsequently correctly folded stable MHC heavy chains are immunoprecipitated using conformation-dependent antibodies. After IEF electrophoresis, gels were exposed to phosphorImager screens, and peptide binding was quantitated using the Imagequant PhosphorImager program (Molecular Dynamics, Sunnyvale, Calif.).

[2] = test system: peripheral blood T cells or TIL from melanoma patients; experiment: ELISPOT IFN-γ secretion assay, T-cell responses against HLA-A2 binding ML-IAP peptides; type: cell-based, human; settings: for strength of spontaneous CTL response: TIL and PBL from melanoma patients, in words; for TIL samples in which a response against the peptide was detected: TIL from melanoma patients (n=22); for TIL samples in which a response against the peptide was detected / PBL samples in which a response against the peptide was detected: stimulated once in vitro with peptide, number of samples; for PBL samples in which a response against the peptide was detected: peripheral blood T cells from melanoma patients (n=7)
Procedure: Peripheral blood was obtained from melanoma patients before vaccination and subsequent to a series of vaccinations. In order to identify peptide-specific T-cell precursors, peripheral blood lymphocytes (PBL) were used directly in the ELISPOT (designated direct ELISPOT). However, to extend the sensitivity of the ELISPOT assay, PBL were stimulated once in vitro prior to analysis^17,18. At day 0, PBL or crushed lymph nodes were thawed and plated in 2 ml/well at a concentration of 2×10^6 cells in 24-well plates (Nunc, Denmark) in X-vivo medium (Bio Whittaker, Walkersville, Md.), 5% heat-inactivated human serum, and 2 mM of L-glutamine in the presence of 10 μM of peptide. Two days later 20 IU/ml recombinant interleukin-2 (IL-2) (Chiron, Ratingen, Germany) was added to the cultures. The cultured cells were tested for reactivity in the ELISPOT on day 8.
The ELISPOT assay used to quantify peptide epitope specific interferon-7 releasing effector cells was adapted from Lalvani et al.^37, and Scheibenbogen et al.^38. Briefly, nitrocellulose bottomed 96-well plates (MultiScreen MAIP N45, Millipore) were coated overnight at 4° C. with 7.5 μg/ml of anti-IFN-γ antibody (1-D1K, Mabtech, Sweden) in 75 μl sterile PBS. Subsequently, the wells were washed six times with PBS, and non-specific binding were blocked by X-vivo medium for 2 hours at 37° C. Freshly isolated PBL or cells, which had been stimulated once in vitro, were added in duplicates at different cell concentrations (from 10^6 to 10^5 cells per well for non-stimulated PBL, and from 3×10^5-3×10^4 cells per well for PBL which had been stimulated once in vitro), in 100 μl X-vivo medium. Peptides were then added to each well to a final concentration of 2 μM and incubated overnight at 37° C.
The following day, media was discarded and the wells were washed (six times) with PBS containing 0.05% Tween (PBS/Tw) before the addition of biotinylated secondary antibody (7-B6-1-Biotin, Mabtech) at 0.5 μg/ml in 75 μl PBS containing 1% BSA and 0.02% NaN3 (PBS/BSA). The plates were incubated at room temperature for 2 hours. The wells were washed (six times) with PBS/Tw. Then 75 μl of Avidin-enzyme conjugate (AP-Avidin, Calbiochem) diluted 1:2000 in PBS/BSA were added to each well and incubated for 1 hour. The enzyme substrate NBT/BCIP was prepared freshly according to the manufacturers' instructions (Gibco, code 18280-016) and 75 μl were added to each well and incubated for 5-10 min. The reaction was terminated by washing with tap-water upon the emergence of dark purple spots. The spots were then counted using the AlphaImager System (Alpha Innotech, San Leandro, Calif., USA) and the peptide specific CTL frequency could be calculated as the number of spot-forming cells.
To extend the sensitivity of the ELISPOT assay, PBL were stimulated once in vitro prior to analysis^17,18. At day 0, PBL or crushed lymph nodes were thawed and plated in 2 ml/well at a concentration of 2×10^6 cells in 24-well plates (Nunc, Denmark) in X-vivo medium (Bio Whittaker, Walkersville, Md.), 5% heat-inactivated human serum, and 2 mM of L-glutamine in the presence of 10 μM of peptide. Two days later 20 IU/ml recombinant interleukin-2 (IL-2) (Chiron, Ratingen, Germany) was added to the cultures. The cultured cells were tested for reactivity in the ELISPOT on day 12.
The ELISPOT assay used to quantify peptide epitope-specific interferon-γ-releasing effector cells was performed as described previously^19. Briefly, nitrocellulose bottomed 96-well plates (MultiScreen MAIP N45, Millipore, Hedehusene, Denmark) were coated with anti-IFN-7 antibody (1-D1K, Mabtech, Nacka, Sweden). The wells were washed, blocked by X-vivo medium, and cells were added in duplicates at different cell concentrations. Peptides were then added to each well and the plates were incubated overnight. The following day, media was discarded and the wells were washed prior to addition of biotinylated secondary antibody (7-B6-1-Biotin, Mabtech). […]

Molecule: ELPTPRREV [ML-IAP200]
- C50 (μM) ([1]; listed as MLIAP200): did not bind

Molecule: CC(C)C[C@H](NC(=O)[C@H](CCC(=O)O)NC(=O)[C@@H]1CCCN1C(=O)[C@@H]1CCCN1C(=O)[C@@H](NC(=O)[C@H](CCC(=O)O)NC(=O)[C@H](C)NC(=O)[C@@H](NC(=O)[C@H](CC(C)C)NC(=O)[C@@H]1CCCN1)[C@@H](C)O)C(C)C)C(=O)O [ML-IAP98]
- EC50 [1]: > 100 µM

Molecule: CC(C)C[C@H](NC(=O)[C@@H](N)C(C)C)C(=O)N[C@@H](CCC(=O)O)C(=O)N1CCC[C@H]1C(=O)N1CCC[C@H]1C(=O)NCC(=O)N[C@@H](C)C(=O)N[C@@H](CCCNC(=N)N)C(=O)N[C@@H](CC(=O)O)C(=O)N[C@H](C(=O)O)C(C)C [ML-IAP230]
- strength of spontaneous CTL response [2]: Weaker spontaneous responses
- TIL samples in which a response against the peptide was detected [2]: six
- PBL samples in which a response against the peptide was detected [2]: two
- C50 (μM) [1]: not able to stabilize the HLA-A2 molecule
- EC50 [1]: > 100 µM

Molecule: CC(C)C[C@H](NC(=O)[C@@H](N)CC(C)C)C(=O)N[C@@H](CCCNC(=N)N)C(=O)N[C@@H](CO)C(=O)N[C@@H](CCCCN)C(=O)NCC(=O)N[C@@H](CCCNC(=N)N)C(=O)N[C@@H](CC(=O)O)C(=O)N[C@@H](Cc1ccccc1)C(=O)N[C@H](C(=O)O)C(C)C [ML-IAP154]
- EC50 [1]: 10 µM

Molecule: SIVFVPCG [ML-IAP261]
- C50 (μM) ([1]; listed as MLIAP261): did not bind

Molecule: CC(C)C[C@H](NC(=O)[C@@H]1CCCN1C(=O)[C@H](Cc1c[nH]c2ccccc12)NC(=O)[C@H](CC(=O)O)NC(=O)[C@H](Cc1ccc(O)cc1)NC(=O)[C@H](Cc1ccccc1)NC(=O)[C@H](CO)NC(=O)[C@H](C)NC(=O)[C@H](CC(C)C)NC(=O)[C@@H](N)CCCNC(=N)N)C(=O)O [ML-IAP90]
- strength of spontaneous CTL response [2]: Weaker spontaneous responses
- TIL samples in which a response against the peptide was detected [2]: seven
- PBL samples in which a response against the peptide was detected [2]: two
- EC50 [1]: 0.2 µM

Molecule: CC(C)C[C@H](NC(=O)CNC(=O)[C@H](CC(C)C)NC(=O)[C@@H](NC(=O)[C@@H]1CCCN1C(=O)[C@H](CO)NC(=O)CNC(=O)[C@H](CC(C)C)NC(=O)[C@@H](N)CO)C(C)C)C(=O)O [ML-IAP34]
- EC50 [1]: 1 µM

Molecule: CC[C@H](C)[C@H](NC(=O)[C@@H]1CCCN1C(=O)[C@H](CS)NC(=O)[C@H](CC(C)C)NC(=O)[C@@H](N)CCC(N)=O)C(=O)N[C@@H](CS)C(=O)N[C@@H](CCCNC(=N)N)C(=O)N[C@@H](C)C(=O)N1CCC[C@H]1C(=O)N[C@H](C(=O)O)C(C)C [ML-IAP280]
- EC50 [1]: 20 µM

Molecule: CSCC[C@H](NC(=O)CN)C(=O)NCC(=O)N[C@@H](CO)C(=O)N[C@@H](CCC(=O)O)C(=O)N[C@@H](CCC(=O)O)C(=O)N[C@@H](CC(C)C)C(=O)N[C@@H](CCCNC(=N)N)C(=O)N[C@@H](CC(C)C)C(=O)O [ML-IAP83]
- EC50 [1]: 30 µM

Molecule: CC[C@H](C)[C@H](NC(=O)[C@@H](N)CCC(N)=O)C(=O)N[C@@H](CC(C)C)C(=O)NCC(=O)N[C@@H](CCC(N)=O)C(=O)N[C@@H](CC(C)C)C(=O)N[C@@H](CCCNC(=N)N)C(=O)N1CCC[C@H]1C(=O)N[C@@H](CC(C)C)C(=O)O [ML-IAP54]
- EC50 [1]: 1 µM

Molecule: CC(C)C[C@H](NC(=O)[C@H](CCC(=O)O)NC(=O)[C@@H]1CCCN1C(=O)[C@@H]1CCCN1C(=O)[C@@H](NC(=O)[C@H](CCC(=O)O)NC(=O)[C@H](C)NC(=O)[C@@H](NC(=O)[C@@H](N)CC(C)C)[C@@H](C)O)C(C)C)C(=O)O [ML-IAP99]
- EC50 [1]: 0.9 µM
